Measured values: patent publication US20160016916A1, “Exo Olefin-Containing Nuclear Transport Modulators and Uses Thereof” (KARYOPHARM THERAPEUTICS INC., priority 2013, published 2016)

Experiments:
CRM1 = target: T1, CRM1 (Homo sapiens, UniProt O14980); test: CRM1-mediated nuclear export assay (GFP nuclear localization in HeLa cells); assay type: cell-based; conditions: HeLa cells expressing NLS-GFP-NES(PKI), 3 hours, concentration at which approximately 50% of the cells showed nuclear GFP
T1 construct: HeLa cells expressing GFP that was N-terminally fused to a nuclear localization and C-terminally fused to the nuclear export signal of PKI; endogenous in cells; host or cells: HeLa cells expressing an NLS-GFP-NES(PKI) reporter
Procedure: HeLa cells expressing GFP that was N-terminally fused to a nuclear localization and C-terminally fused to the nuclear export signal of PKI were treated with different concentrations of test compounds for 3 hours and then scored for nuclear localization of GFP.
HeLa cells were cultured in Dulbecco's modified Eagle's medium (DMEM) supplemented with 10% (vol/vol) heat-inactivated fetal calf serum, 2 mM L-glutamine 0.1% sodium bicarbonate, and 20 μg/ml gentamicin. The cells were plated in 96-well plates at 0.02×10^6 cells/well and incubated overnight. The next day, compound was added to the cells and incubated for another 3 hours. After 3 hours, GFP subcellular localization was monitored using a Leica DMI6000 microscope.

MM1.S cells = test: CellTiter 96 AQueous One Solution cell proliferation assay (MTS); assay type: cell-based; conditions: Homo sapiens, 72 h of treatment, MTS absorbance at 490 nm
Text: The CellTiter 96® AQueous One Solution cell proliferation assay (Promega) was used on MM1.S cells to study the cytotoxic and cytostatic properties of the compounds. The assay is based on the cleavage of the tetrazolium salt, MTS, in the presence of an electron-coupling reagent PES (phenazine ethosulfate). The MTS tetrazolium compound is bioreduced by cells into a colored formazan product that is soluble in tissue culture medium. This conversion is presumably accomplished by NADPH or NADH produced by dehydrogenase enzymes in metabolically active cells. Assays are performed by adding a small amount of the CellTiter 96® AQueous One solution reagent directly to culture wells, incubating for 1-4 hours and then recording the absorbance at 490 nm with a 96-well plate reader.
The cells were seeded at 5×10^3 to 1.5×10^4 cells (depending on cell type) in each well of 96-well plate in 100 μL of fresh culture medium and adherent cells were allowed to attach for overnight. The stock solutions of the compounds were diluted in cell culture medium to obtain eight concentrations of each drug, ranging from 1 nM to 30 μM and DMSO at less than 1% v/v was used as a negative control. After 72 h of treatment, 20 μL of CellTiter 96® AQueous reagent was added into each well of the 96-well assay plates and the plate was incubate at 37° C. for 1-4 hours in a humidified, 5% CO2 atmosphere. Then the absorbance of each well was recorded at 490 nm by using a 96-well plate reader. In most cases, the assay was performed in triplicates and the results were presented as half maximal inhibitory concentration (IC50). Optical density versus compound concentration was plotted and analyzed using non linear regression equations (Excel Fit) and the IC50 for each compound was calculated.

T1 sequence (O14980 whole entry, the tested form may be a part): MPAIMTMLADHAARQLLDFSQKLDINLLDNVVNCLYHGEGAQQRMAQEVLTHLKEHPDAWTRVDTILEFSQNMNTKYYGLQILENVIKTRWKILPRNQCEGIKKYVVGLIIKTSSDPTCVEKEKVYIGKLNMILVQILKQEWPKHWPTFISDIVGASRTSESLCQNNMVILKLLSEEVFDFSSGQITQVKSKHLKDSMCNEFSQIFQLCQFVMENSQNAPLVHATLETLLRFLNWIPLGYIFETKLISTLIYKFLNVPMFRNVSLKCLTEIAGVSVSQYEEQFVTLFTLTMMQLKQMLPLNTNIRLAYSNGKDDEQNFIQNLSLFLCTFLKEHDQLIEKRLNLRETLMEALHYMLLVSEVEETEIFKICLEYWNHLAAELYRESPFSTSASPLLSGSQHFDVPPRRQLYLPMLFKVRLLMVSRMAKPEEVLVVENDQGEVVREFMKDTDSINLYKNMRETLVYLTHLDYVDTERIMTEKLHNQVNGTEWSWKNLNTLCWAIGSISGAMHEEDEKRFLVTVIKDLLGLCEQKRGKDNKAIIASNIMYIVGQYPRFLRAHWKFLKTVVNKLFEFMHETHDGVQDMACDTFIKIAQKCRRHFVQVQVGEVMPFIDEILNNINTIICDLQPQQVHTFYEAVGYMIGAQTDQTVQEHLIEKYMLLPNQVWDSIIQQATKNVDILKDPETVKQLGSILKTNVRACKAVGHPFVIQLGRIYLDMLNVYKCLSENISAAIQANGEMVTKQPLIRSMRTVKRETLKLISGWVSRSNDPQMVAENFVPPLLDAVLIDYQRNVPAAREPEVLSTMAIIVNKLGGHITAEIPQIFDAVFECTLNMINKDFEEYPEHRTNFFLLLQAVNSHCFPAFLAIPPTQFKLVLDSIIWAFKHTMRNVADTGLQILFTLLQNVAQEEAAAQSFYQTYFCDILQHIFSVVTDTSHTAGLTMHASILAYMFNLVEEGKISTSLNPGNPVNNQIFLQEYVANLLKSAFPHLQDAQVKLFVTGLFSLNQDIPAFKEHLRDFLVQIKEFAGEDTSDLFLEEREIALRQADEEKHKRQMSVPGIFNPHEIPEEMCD

Compound | EC50 (CRM1) [nM] | IC50 (MM1.S cells) [nM]
C=C(Cn1cnc(-c2cc(C(F)(F)F)cc(C(F)(F)F)c2)n1)C(=O)OC(C)C [Compound 1, isopropyl 2-((3-(3,5-bis(trifluoromethyl)phenyl)-1H-1,2,4-triazol-1-yl)methyl)acrylate] | 900 | 100
C=C(Cn1cnc(-c2cc(C(F)(F)F)cc(C(F)(F)F)c2)n1)C(=O)NNc1ccccn1 [Compound 6, 2-((3-(3,5-bis(trifluoromethyl)phenyl)-1H-1,2,4-triazol-1-yl)methyl)-N′-(pyridin-2-yl)acrylohydrazide] | 900 | 70
C=C(Cn1nnc(-c2ccccc2)n1)C(=O)N1CCCCC1 [Compound 10, 2-((5-phenyl-2H-tetrazol-2-yl)methyl)-1-(piperidin-1-yl)prop-2-en-1-one] | > 30000 | 
C=C(Cn1cnc(-c2cc(C(F)(F)F)cc(C(F)(F)F)c2)n1)C(=O)NNc1cnccn1 [Compound 7, 2-((3-(3,5-bis(trifluoromethyl)phenyl)-1H-1,2,4-triazol-1-yl)methyl)-N′-(pyrazin-2-yl)acrylohydrazide] |  | 10
C=C(Cn1cnc(-c2cc(C(F)(F)F)cc(C(F)(F)F)c2)n1)C(=O)N1CC(F)(F)C1 [Compound 5, 2-((3-(3,5-bis(trifluoromethyl)phenyl)-1H-1,2,4-triazol-1-yl)methyl)-1-(3,3-difluoroazetidin-1-yl)prop-2-en-1-one] | 1800 | 90
C=C(Cn1nnc(-c2cc(C(F)(F)F)cc(C(F)(F)F)c2)n1)C(=O)OC(C)C [Compound 11, isopropyl 2-((5-(3,5-bis(trifluoromethyl)phenyl)-2H-tetrazol-2-yl)methyl)acrylate] | 15000 | 
C=C(Cn1nnc(-c2ccccc2)n1)c1nnco1 [Compound 9, 2-(3-(5-phenyl-2H-tetrazol-2-yl)prop-1-en-2-yl)-1,3,4-oxadiazole] | 15000 | 
C=C(Cn1cnc(-c2cc(OC)cc(C(F)(F)F)c2)n1)C(=O)OCC [Compound 4, ethyl 2-((3-(3-methoxy-5-(trifluoromethyl)phenyl)-1H-1,2,4-triazol-1-yl)methyl)acrylate] | 3800 | 
C=C(Cn1cnc(-c2cc(OC)cc(C(F)(F)F)c2)n1)C(=O)OC(C)C [Compound 3, isopropyl 2-((3-(3-methoxy-5-(trifluoromethyl)phenyl)-1H-1,2,4-triazol-1-yl)methyl)acrylate] | 1800 | 50
C=C(Cn1cnc(-c2cc(C(F)(F)F)cc(C(F)(F)F)c2)n1)c1nnco1 [Compound 8, 2-(3-(3-(3,5-bis(trifluoromethyl)phenyl)-1H-1,2,4-triazol-1-yl)prop-1-en-2-yl)-1,3,4-oxadiazole] | 230 | 30
